We go through four molecules from ChEMBL document CHEMBL2057207, “Fluorometric detection of adenine in target DNA by exciplex formation with fluorescent 8-arylethynylated deoxyguanosine” (Bioorg Med Chem Lett, 2012).

What all share (format): nucleic-acid assay
In assay [1] the test system is Nucleic Acid. The assay is described as follows: Binding affinity to DNA 3'-GCG TTA T ATT GCG-5' assessed as change in fluorescence emission at 2.5 uM by UV-Vis spectrophotometric analysis at pH 7.
Assay [2] has as its system Nucleic Acid. The assay is described as follows: Binding affinity to DNA 3'-GCG TTA A ATT GCG-5' assessed as change in fluorescence emission at 2.5 uM by UV-Vis spectrophotometric analysis at pH 7.
The test system of assay [3] is Nucleic Acid. The assay is described as follows: Binding affinity to DNA 3'-GCG TTA G ATT GCG-5' assessed as change in fluorescence emission at 2.5 uM by UV-Vis spectrophotometric analysis at pH 7.
Assay [4] relates to Nucleic Acid. The assay is described as follows: Binding affinity to DNA 3'-GCG TTA C ATT GCG-5' assessed as change in fluorescence emission at 2.5 uM by UV-Vis spectrophotometric analysis at pH 7.
For assay [5], the system named is Nucleic Acid. In words: Binding affinity to DNA 3'-GCG TTA A ATT GCG-5' assessed as change in fluorescence emission at 2.5 uM by UV transilluminator analysis.
For assay [6], the system named is Nucleic Acid. In words: Binding affinity to DNA 3'-GCG TTA C ATT GCG-5' assessed as change in fluorescence emission at 2.5 uM by UV transilluminator analysis.
The test system of assay [7] is Nucleic Acid. The assay is described as follows: Binding affinity to DNA 3'-GCG TTA G ATT GCG-5' assessed as change in fluorescence emission at 2.5 uM by UV transilluminator analysis.
The test system of assay [8] is Nucleic Acid. The assay is described as follows: Binding affinity to DNA 3'-GCG TTA T ATT GCG-5' assessed as change in fluorescence emission at 2.5 uM by UV transilluminator analysis.
For assay [9], the system named is Nucleic Acid. The assay is described as follows: Binding affinity to DNA 3'-GCG TTA G ATT GCG-5' assessed as melting temperature.
The test system of assay [10] is Nucleic Acid. The assay is described as follows: Binding affinity to DNA 3'-GCG TTA T ATT GCG-5' assessed as melting temperature.
The subject of assay [11] is Nucleic Acid. In words: Binding affinity to DNA 3'-GCG TTA A ATT GCG-5' assessed as melting temperature.
Assay [12] has as its system Nucleic Acid. In words: Binding affinity to DNA 3'-GCG TTA C ATT GCG-5' assessed as melting temperature.

SMILES strings stand for the structures. Activity calls are given as the source filed them. No cut-off for these calls is given here.

Consider `Cc1cn([C@H]2C[C@H](OP(=O)(O)OC[C@H]3O[C@@H](n4c(C#Cc5ccccc5)nc5c(=O)[nH]c(N)nc54)C[C@@H]3OP(=O)(O)OC[C@H]3O[C@@H](n4cc(C)c(=O)[nH]c4=O)C[C@@H]3OP(=O)(O)OC[C@H]3O[C@@H](n4cnc5c(N)ncnc54)C[C@@H]3OP(=O)(O)OC[C@H]3O[C@@H](n4cnc5c(N)ncnc54)C[C@@H]3OP(=O)(O)OC[C@H]3O[C@@H](n4ccc(N)nc4=O)C[C@@H]3OP(=O)(O)OC[C@H]3O[C@@H](n4cnc5c(=O)[nH]c(N)nc54)C[C@@H]3OP(=O)(O)OC[C@H]3O[C@@H](n4ccc(N)nc4=O)C[C@@H]3O)[C@@H](COP(=O)(O)O[C@H]3C[C@H](n4cnc5c(N)ncnc54)O[C@@H]3COP(=O)(O)O[C@H]3C[C@H](n4cnc5c(N)ncnc54)O[C@@H]3COP(=O)(O)O[C@H]3C[C@H](n4ccc(N)nc4=O)O[C@@H]3COP(=O)(O)O[C@H]3C[C@H](n4cnc5c(=O)[nH]c(N)nc54)O[C@@H]3COP(=O)(O)O[C@H]3C[C@H](n4ccc(N)nc4=O)O[C@@H]3CO)O2)c(=O)[nH]c1=O`, for which the result in [1], in assay [2], in [3] and in assay [4] was inactive.
In the case of `COc1ccc(C#Cc2nc3c(=O)[nH]c(N)nc3n2[C@H]2C[C@H](OP(=O)(O)OC[C@H]3O[C@@H](n4cc(C)c(=O)[nH]c4=O)C[C@@H]3OP(=O)(O)OC[C@H]3O[C@@H](n4cnc5c(N)ncnc54)C[C@@H]3OP(=O)(O)OC[C@H]3O[C@@H](n4cnc5c(N)ncnc54)C[C@@H]3OP(=O)(O)OC[C@H]3O[C@@H](n4ccc(N)nc4=O)C[C@@H]3OP(=O)(O)OC[C@H]3O[C@@H](n4cnc5c(=O)[nH]c(N)nc54)C[C@@H]3OP(=O)(O)OC[C@H]3O[C@@H](n4ccc(N)nc4=O)C[C@@H]3O)[C@@H](COP(=O)(O)O[C@H]3C[C@H](n4cc(C)c(=O)[nH]c4=O)O[C@@H]3COP(=O)(O)O[C@H]3C[C@H](n4cnc5c(N)ncnc54)O[C@@H]3COP(=O)(O)O[C@H]3C[C@H](n4cnc5c(N)ncnc54)O[C@@H]3COP(=O)(O)O[C@H]3C[C@H](n4ccc(N)nc4=O)O[C@@H]3COP(=O)(O)O[C@H]3C[C@H](n4cnc5c(=O)[nH]c(N)nc54)O[C@@H]3COP(=O)(O)O[C@H]3C[C@H](n4ccc(N)nc4=O)O[C@@H]3CO)O2)cc1`, the outcome in assay [5], in [6], in assay [7], in assay [8] and in [2] was Active. Further, the result in assay [1], in [3] and in [4] was inactive. In addition, the Tm was found to be 49.8 °C in assay [9], 45.1 °C in assay [10], 49.7 °C in [11] and 50.5 °C in assay [12].
Consider `COc1cc(OC)c(C#Cc2nc3c(=O)[nH]c(N)nc3n2[C@H]2C[C@H](OP(=O)(O)OC[C@H]3O[C@@H](n4cc(C)c(=O)[nH]c4=O)C[C@@H]3OP(=O)(O)OC[C@H]3O[C@@H](n4cnc5c(N)ncnc54)C[C@@H]3OP(=O)(O)OC[C@H]3O[C@@H](n4cnc5c(N)ncnc54)C[C@@H]3OP(=O)(O)OC[C@H]3O[C@@H](n4ccc(N)nc4=O)C[C@@H]3OP(=O)(O)OC[C@H]3O[C@@H](n4cnc5c(=O)[nH]c(N)nc54)C[C@@H]3OP(=O)(O)OC[C@H]3O[C@@H](n4ccc(N)nc4=O)C[C@@H]3O)[C@@H](COP(=O)(O)O[C@H]3C[C@H](n4cc(C)c(=O)[nH]c4=O)O[C@@H]3COP(=O)(O)O[C@H]3C[C@H](n4cnc5c(N)ncnc54)O[C@@H]3COP(=O)(O)O[C@H]3C[C@H](n4cnc5c(N)ncnc54)O[C@@H]3COP(=O)(O)O[C@H]3C[C@H](n4ccc(N)nc4=O)O[C@@H]3COP(=O)(O)O[C@H]3C[C@H](n4cnc5c(=O)[nH]c(N)nc54)O[C@@H]3COP(=O)(O)O[C@H]3C[C@H](n4ccc(N)nc4=O)O[C@@H]3CO)O2)c(OC)c1`, for which the result in assay [1], in assay [3] and in [4] was inactive. Further, the result in [2] was Active. Further, the Tm in assay [9] was determined as 46.2 °C; in assay [10], 42.8 °C; in assay [11], 52.2 °C; in [12] it was 45.5 °C.
Consider `COc1ccc(C#Cc2nc3c(=O)[nH]c(N)nc3n2[C@H]2C[C@H](OP(=O)(O)OC[C@H]3O[C@@H](n4cc(C)c(=O)[nH]c4=O)C[C@@H]3OP(=O)(O)OC[C@H]3O[C@@H](n4cnc5c(N)ncnc54)C[C@@H]3OP(=O)(O)OC[C@H]3O[C@@H](n4cnc5c(N)ncnc54)C[C@@H]3OP(=O)(O)OC[C@H]3O[C@@H](n4ccc(N)nc4=O)C[C@@H]3OP(=O)(O)OC[C@H]3O[C@@H](n4cnc5c(=O)[nH]c(N)nc54)C[C@@H]3OP(=O)(O)OC[C@H]3O[C@@H](n4ccc(N)nc4=O)C[C@@H]3O)[C@@H](COP(=O)(O)O[C@H]3C[C@H](n4cc(C)c(=O)[nH]c4=O)O[C@@H]3COP(=O)(O)O[C@H]3C[C@H](n4cnc5c(N)ncnc54)O[C@@H]3COP(=O)(O)O[C@H]3C[C@H](n4cnc5c(N)ncnc54)O[C@@H]3COP(=O)(O)O[C@H]3C[C@H](n4ccc(N)nc4=O)O[C@@H]3COP(=O)(O)O[C@H]3C[C@H](n4cnc5c(=O)[nH]c(N)nc54)O[C@@H]3COP(=O)(O)O[C@H]3C[C@H](n4ccc(N)nc4=O)O[C@@H]3CO)O2)c2ccccc12`, for which the outcome in assay [1], in [3] and in assay [4] was inactive. The result in assay [2] was Active. Moreover, the Tm in assay [9] amounted to 49.6 °C; in [10], 46.7 °C; in assay [11], 49.2 °C; in assay [12], 49.4 °C.
